From patent US20060148860A1, “Substituted p-phenyl carbamates” (Novo Nordisk A/S, priority 2003, published 2006)

Target: T1, hormone sensitive lipase (HSL) (Homo sapiens, UniProt Q05469)
T1 sequence (Q05469 1-1076): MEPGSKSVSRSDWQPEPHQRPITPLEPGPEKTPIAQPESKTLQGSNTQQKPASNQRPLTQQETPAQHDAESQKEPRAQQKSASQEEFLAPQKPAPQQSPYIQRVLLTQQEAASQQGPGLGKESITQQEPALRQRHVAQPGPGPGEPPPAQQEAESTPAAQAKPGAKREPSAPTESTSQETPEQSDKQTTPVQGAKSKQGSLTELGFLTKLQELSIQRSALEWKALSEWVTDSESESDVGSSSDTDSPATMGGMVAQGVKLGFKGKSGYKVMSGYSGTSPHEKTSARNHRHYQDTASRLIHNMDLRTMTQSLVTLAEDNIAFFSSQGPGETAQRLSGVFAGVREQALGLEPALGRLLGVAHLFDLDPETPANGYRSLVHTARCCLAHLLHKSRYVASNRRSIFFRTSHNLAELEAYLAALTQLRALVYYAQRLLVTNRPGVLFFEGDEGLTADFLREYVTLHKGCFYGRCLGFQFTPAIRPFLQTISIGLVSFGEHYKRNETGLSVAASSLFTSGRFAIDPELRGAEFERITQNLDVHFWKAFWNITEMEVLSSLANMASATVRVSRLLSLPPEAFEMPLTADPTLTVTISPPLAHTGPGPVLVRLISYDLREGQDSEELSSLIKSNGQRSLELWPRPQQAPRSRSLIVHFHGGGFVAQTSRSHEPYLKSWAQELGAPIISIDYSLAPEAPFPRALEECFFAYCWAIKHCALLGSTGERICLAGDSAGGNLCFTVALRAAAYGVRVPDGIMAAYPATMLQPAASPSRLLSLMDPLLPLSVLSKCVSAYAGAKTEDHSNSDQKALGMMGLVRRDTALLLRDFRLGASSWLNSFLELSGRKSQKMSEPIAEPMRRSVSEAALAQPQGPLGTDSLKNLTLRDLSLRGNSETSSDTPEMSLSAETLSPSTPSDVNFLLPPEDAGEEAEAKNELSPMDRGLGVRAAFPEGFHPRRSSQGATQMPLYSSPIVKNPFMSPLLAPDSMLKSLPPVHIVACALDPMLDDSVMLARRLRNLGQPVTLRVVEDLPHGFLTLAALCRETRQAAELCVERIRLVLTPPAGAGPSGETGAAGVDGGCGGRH
Experiment: 3190.1: percent inhibition of hormone sensitive lipase at 10 μM (fluorochrome-labeled triacylglyceride emulsion, HSL_FL)
Type: biochemical
Details: 10 μM sample concentration; % activity relative to non-inhibited sample (no compound); 30 min pre-incubation at 25° C., 120 min at 37° C.
Description: Materials. The Hormone-sensitive lipase was provided by Dr. Cecilia Holm, from Lund University Sweden or produced and purified by Novo Nordisk (NN) using the reagents and protocols used by Dr. Holm. The substrates used are: ^3H-labeled triolein (TO) from Amersham, Buckinghamshire, U.K. cat No. TRA191; 5-20 Ci/mmol dissolved in toluene, triolein (Sigma, Cat. No. T-1740), fluorochrome-labeled triacylglyceride (cis-octadec-9-enoic acid 2-[12-(7-nitrobenzo[1,2,5]oxadiazol-4-ylamino)dodecanoyloxy]-1-cis-octadec-9-enoyloxymethyl-ethyl ester) prepared by Novo Nordisk (NN) by conventional methods, and 1,3-(di[^3H]-stearin), 2-(PEG-Biotin)glycerol prepared in collaboration with Amersham Pharmacia Biotech, UK and described in WO 01/073442. Phosphatidyl choline (PC) and phosphatidyl inositol (PI) are from Sigma (St Luis Mo. cat. Nos. P-3556 and P-5954 respectively). All other reagents are of commercial grade and obtained from various commercial sources.
3190.1: Assay for determination of percent inhibition of hormone sensitive lipase by compound at 10 μM sample concentration.
A lipid emulsion with fluorochrome-labeled triacylglyceride and phospholipid is used as substrate with a standard concentration of highly purified HSL (12 μg/mL initial concentration corresponding to 600 ng/mL final concentration). BSA is added as product acceptor. The transfer of the fluorochrome from the lipid phase to the water (BSA) phase changes the fluorescent properties of the fluorochrome. The changes can be monitored on a fluorimeter with an excitation wavelength of 450 nm and an emission wavelength of 545 nm.
Compound and HSL (20 μL compound, 10 μL enzyme and 70 μL PED-BSA buffer) is pre-incubated for 30 min at 25° C. before addition of substrate (100 μL). Amount of formed product is measured after 120 min incubation at 37° C.
Results are given as percent activity relative to a non-inhibited sample (no compound).

SMILES | activity at 10 µM
CN(C(=O)Oc1ccc(CCOc2ccncc2)cc1)c1ccccc1 [Example 1, Methyl-phenyl-carbamic acid 4-[2-(pyridin-4-yloxy)-ethyl]-phenyl ester] | 1%
CN(C(=O)Oc1ccc(CSc2ncc[nH]2)cc1)c1ccccc1 [Example 2, Methyl-phenyl-carbamic acid 4-(1H-imidazol-2-ylsulfanylmethyl)-phenyl ester] | 1%
CN(C(=O)Oc1ccc(CCSc2ncc[nH]2)cc1)c1ccccc1 [Example 3, Methyl-phenyl-carbamic acid 4-[2-(1H-imidazol-2-ylsulfanyl)-ethyl]-phenyl ester] | 1%
Cc1cccc(Cc2ccc(OC(=O)N(C)c3ccccc3)cc2)n1 [Example 4, Methyl-phenyl-carbamic acid 4-(6-methyl-pyridin-2-ylmethyl)-phenyl ester] | 5%
